We go through 5 molecules from BindingDB's records for doi:10.1016/j.bmcl.2017.10.036 (Williams College, 2017).

For the assay, the target named is T1, Histidine kinase (Caulobacter vibrioides, UniProt Q9X688).
T1 sequence (Q9X688 whole entry): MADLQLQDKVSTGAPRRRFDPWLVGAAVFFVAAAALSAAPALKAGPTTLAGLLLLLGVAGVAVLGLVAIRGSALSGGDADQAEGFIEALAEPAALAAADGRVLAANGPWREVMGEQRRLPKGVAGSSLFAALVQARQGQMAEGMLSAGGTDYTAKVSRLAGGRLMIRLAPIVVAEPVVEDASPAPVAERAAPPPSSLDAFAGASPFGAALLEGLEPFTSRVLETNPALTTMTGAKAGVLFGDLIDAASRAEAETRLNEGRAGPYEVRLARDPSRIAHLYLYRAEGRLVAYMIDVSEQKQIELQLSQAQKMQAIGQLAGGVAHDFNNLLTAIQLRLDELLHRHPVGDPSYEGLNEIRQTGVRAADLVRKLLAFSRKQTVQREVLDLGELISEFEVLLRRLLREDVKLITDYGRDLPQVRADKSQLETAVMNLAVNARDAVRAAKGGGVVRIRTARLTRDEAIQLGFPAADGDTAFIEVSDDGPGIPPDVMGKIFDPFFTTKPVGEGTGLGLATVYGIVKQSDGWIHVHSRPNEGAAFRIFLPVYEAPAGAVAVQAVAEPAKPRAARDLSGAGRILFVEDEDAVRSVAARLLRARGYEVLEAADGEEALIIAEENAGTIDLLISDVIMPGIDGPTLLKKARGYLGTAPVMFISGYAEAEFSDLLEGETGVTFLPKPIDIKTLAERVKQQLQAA
The experiment in a line: Inhibition of recombinant Caulobacter vibrioides cell cycle histidine kinase CckA deltaTM mutant DHp domain (70 to 691 residues) expressed in Escherichia coli in presence of varying levels of ATP measured every 60 secs for 2 hrs by PK/LDH enzyme coupled assay.

A word on the IC50: it is the concentration that inhibits the measured activity by half. In the case of `Cc1[nH]nc(-c2cc(Cl)c(O)cc2O)c1-c1ccc2c(c1)OCCO2` [4-chloro-6-[4-(2,3-dihydro-1,4-benzodioxin-6-yl)-5-methyl-1H-pyrazol-3-yl]benzene-1,3-diol], the half-maximal inhibitory concentration (IC50) came out at 11.2 µM.

Take `CCNC(=O)c1noc(-c2cc(C(C)C)c(O)cc2O)c1-c1ccc(CN2CCOCC2)cc1` [5-[2,4-dihydroxy-5-(propan-2-yl)phenyl]-N-ethyl-4-[4-(morpholin-4-ylmethyl)phenyl]-1,2-oxazole-3-carboxamide]: the IC50 was determined as 7.3 µM.

With `Oc1cc(O)c(-c2n[nH]cc2-c2ccc3c(c2)OCCO3)cc1Cl`, the half-maximal inhibitory concentration (IC50) was 32.3 µM.

As to `COc1ccc(-c2c(-c3cc(Cl)c(O)cc3O)n[nH]c2C)cc1`, the IC50 is 12.3 µM.

On to `CCc1cc(-c2n[nH]c(C)c2-c2ccc3c(c2)OCCO3)c(O)cc1O`, for which the IC50 was found to be 28 µM.
